Experimental findings from patent US8735432B2, “N-(Heteroaryl)-1-heteroarylalky1-1H-indole-2-carboxamide derivatives, preparation and therapeutic use thereof” (Sanofi, priority 2005, dated 2014) are described below.

One data set concerns the target T1, TRPV1 receptors (Mus musculus, UniProt Q704Y3).
T1 construct: from tissue; host or cells: living mouse, cornea (C fibres)
In words: Test of mouse corneal irritation (capsaicin ocular instillation). The class given is in vivo. Conditions: percentage of protection, pretreatment time t = 1 h, capsaicin 2 μl of 160 μM in the eye. On the procedure: Test of Mouse Corneal Irritation
The irritant nature of capsaicin is readily assessed on the cornea since this organ is one of the organs most densely innervated with C fibres. In this context, from preliminary experiments, the application of a very small amount of capsaicin (2 μl at a concentration of 160 μM) to the surface of the cornea of an animal leads to a certain number of stereotypic behavioral traits associated with irritation, which are easy to detect. Among these, the following are noted: blinking of the eye, rubbing of the instilled eye with the ipsilateral front paw, rubbing of the face with both front paws, scratching of the ipsilateral face with the hind paw. […] This aspect is moreover also normal. […]
In practice, the test product is administered orally and, with a delay (pretreatment time: t) that depends on the pharmacokinetic data, the animal receives an ocular instillation of 2 μl of a 160 μM capsaicin solution prepared as indicated above. During a 2-minute observation following the instillation, the number of times the instilled eye is rubbed with the ipsilateral front paw is recorded.
For a given animal, the percentage of protection is calculated as follows: P=100−((number of scratching actions observed/mean number of scratching actions for the group treated with the solvent)×100) […]

The next data set has as its target T2, TRPV1 receptor (Rattus norvegicus, UniProt O35433).
T2 construct: The neurons of the DRG naturally express the TRPV1 receptor; endogenous in cells; host or cells: primary culture of newborn rat dorsal root ganglion neurons
Briefly: Inhibition of the current induced with capsaicin on rat DRGs (whole-cell patch-clamp). The class given is cell-based. The settings on record: DRG neuron; compound at 3 nM; inhibition of control capsaicin response (300 nM); newborn rat DRG neurons; read-out: % inhibition as a DRG patch. On the procedure: Test of Inhibition of the Current Induced with Capsaicin on Rat DRGs
Primary Culture of Rat Dorsal Root Ganglion (DRG) Cells:
The neurons of the DRG naturally express the TRPV1 receptor.
The primary cultures of newborn rat DRGs are prepared using 1-day-old rats. Briefly, after dissection, the ganglions are trypsinized and the cells dissociated by mechanical trituration. The cells are resuspended in an Eagle basal culture medium containing 10% fetal calf serum, 25 mM KCl, 2 mM glutamine, 100 μg/ml gentamicin and 50 ng/ml of NGF, and then deposited on glass slides coated with laminin (0.25×10^6 cells per slide), which are then placed in Corning 12-well dishes. The cells are incubated at 37° C. in a humidified atmosphere containing 5% CO2 and 95% air. […]
The measuring chambers (volume 800 μl) containing the cell preparation are placed on the platform of an inverted microscope (Olympus IMT2) equipped with Hoffman optics (Modulation Contrast, New York) and observed at a magnification of 400×. […] The overall currents (membrane potential set at −60 mV) are recorded with an Axopatch 1D amplifier (Axon Instruments, Foster City, Calif.), connected to a PC running the Pclamp8 software (Axon Instrument). The current plots are recorded on paper and simultaneously digitized (sampling frequency 15 to 25 Hz) and acquired on the hard drive of the PC. […]
Background: Patch clamp records ionic current or voltage across a cell membrane.

T1 sequence (Q704Y3 whole entry): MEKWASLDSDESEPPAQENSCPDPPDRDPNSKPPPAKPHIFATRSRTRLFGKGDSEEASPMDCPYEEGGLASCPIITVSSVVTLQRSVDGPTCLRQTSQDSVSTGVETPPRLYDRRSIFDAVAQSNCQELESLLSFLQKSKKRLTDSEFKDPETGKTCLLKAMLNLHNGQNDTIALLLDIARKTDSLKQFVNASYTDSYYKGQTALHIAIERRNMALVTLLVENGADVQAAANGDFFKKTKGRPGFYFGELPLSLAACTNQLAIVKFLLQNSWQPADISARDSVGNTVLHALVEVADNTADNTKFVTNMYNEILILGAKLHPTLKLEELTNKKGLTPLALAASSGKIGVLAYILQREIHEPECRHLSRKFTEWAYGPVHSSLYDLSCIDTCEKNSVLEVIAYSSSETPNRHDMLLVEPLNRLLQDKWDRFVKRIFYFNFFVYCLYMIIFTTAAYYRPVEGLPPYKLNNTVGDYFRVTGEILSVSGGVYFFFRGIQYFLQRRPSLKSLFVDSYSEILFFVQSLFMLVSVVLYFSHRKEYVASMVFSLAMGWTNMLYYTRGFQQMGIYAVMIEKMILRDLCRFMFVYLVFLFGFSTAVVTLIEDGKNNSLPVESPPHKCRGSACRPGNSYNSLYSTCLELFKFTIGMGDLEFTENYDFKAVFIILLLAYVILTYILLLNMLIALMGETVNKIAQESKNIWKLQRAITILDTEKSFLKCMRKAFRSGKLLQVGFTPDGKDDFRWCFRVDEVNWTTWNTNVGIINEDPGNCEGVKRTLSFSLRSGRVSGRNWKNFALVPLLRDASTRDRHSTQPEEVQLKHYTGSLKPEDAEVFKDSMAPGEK
T2 sequence (O35433 whole entry): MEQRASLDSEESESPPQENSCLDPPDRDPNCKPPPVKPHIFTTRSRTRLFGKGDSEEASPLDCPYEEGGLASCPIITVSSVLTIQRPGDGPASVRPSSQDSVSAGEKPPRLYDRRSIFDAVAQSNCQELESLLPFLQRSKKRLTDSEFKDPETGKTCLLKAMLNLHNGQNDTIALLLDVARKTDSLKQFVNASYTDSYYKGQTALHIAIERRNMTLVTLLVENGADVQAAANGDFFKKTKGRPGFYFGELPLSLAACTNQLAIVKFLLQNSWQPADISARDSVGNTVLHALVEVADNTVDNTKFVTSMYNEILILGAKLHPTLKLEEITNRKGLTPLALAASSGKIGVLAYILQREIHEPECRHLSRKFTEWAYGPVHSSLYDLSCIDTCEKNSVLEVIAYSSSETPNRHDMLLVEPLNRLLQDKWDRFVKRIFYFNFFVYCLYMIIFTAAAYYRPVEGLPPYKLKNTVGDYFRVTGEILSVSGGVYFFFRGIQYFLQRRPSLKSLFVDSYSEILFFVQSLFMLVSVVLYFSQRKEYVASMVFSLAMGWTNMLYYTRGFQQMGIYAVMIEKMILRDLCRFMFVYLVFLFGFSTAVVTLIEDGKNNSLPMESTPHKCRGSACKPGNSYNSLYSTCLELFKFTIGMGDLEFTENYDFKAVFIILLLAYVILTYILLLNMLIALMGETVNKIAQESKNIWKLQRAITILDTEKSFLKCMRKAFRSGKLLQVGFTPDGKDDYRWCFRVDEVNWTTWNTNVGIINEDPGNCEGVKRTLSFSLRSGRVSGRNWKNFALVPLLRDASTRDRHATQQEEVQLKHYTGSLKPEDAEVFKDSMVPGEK

The melting point is the temperature of the solid-liquid transition. `Cc1cnc(C)c(Cn2c(C(=O)Nc3ccc4c(c3)nc(C)n4C)cc3cc(F)ccc32)n1` displayed a melting point of 269 to 275 °C. Same read-out and setting: to `Cc1ncc(Cn2c(C(=O)Nc3ccc4c(c3)nc(C)n4C)cc3cc(F)ccc32)nc1C` belongs 226 to 228 °C. The same measure, in the same setting: to `Cc1cnc(Cn2c(C(=O)Nc3ccc4c(c3)nc(C)n4C)cc3cc(F)ccc32)c(C)n1` belongs 266 to 269 °C.

Take `Cl.Cn1ccc2cc(NC(=O)c3cc4cc(F)ccc4n3Cc3ccncc3)ccc21` [Compound 3, N-(1-Methyl-1H-indol-5-yl)-5-fluoro-1-[(pyrid-4-yl)methyl]-1H-indole-2-carboxamide hydrochloride (1:1)]: at TRPV1 receptors, the “% P - (t) at 1 mg/kg (po)” value is 44% - (1 h).

The term inhibition denotes the change of the read-out against control, counted positive when it falls. As to `Cc1nc2cc(NC(=O)c3cc4cc(C(C)(C)C)ccc4n3Cc3ccncc3)ccc2n1C.Cl.Cl` [Compound 6, N-(1,2-Dimethyl-1H-benzimidazol-5-yl)-5-t-butyl-1-[(pyrid-4-yl)methyl]-1H-indole-2-carboxamide hydrochloride (1:2)], the inhibition at 0.003 µM at TRPV1 receptor worked out at 80%. For the same compound, on TRPV1 receptors, the “% P - (t) at 1 mg/kg (po)” value is on record as 24% - (1 h).
